Reference: patent US7981598B2, “Preventive/remedy for respiratory diseases” (Takeda Pharmaceutical Company Limited, priority 2004, dated 2011)

What was measured:
[1] = tested on: cells containing alveolar macrophages; assay: Stimulation with LPS and 25-HC of bronchoalveolar lavage fluid cells from a cigarette smoke-exposed mouse; cytokine mRNA by real-time quantitative PCR; format: cell-based; conditions: co-stimulation with LPS (10 ng/ml) and 25-HC (0.3 to 3 μg/ml), 24 hours, compared with LPS alone; FIG. 6
Experimental: To examine the involvement of CH25H on the morbid state of COPD, the effect of added 25-hydroxycholesterol (25-HC), i.e. CH25H reaction product, on alveolar macrophages was examined. According to the method described in EXAMPLE 4, a mouse was exposed to cigarette smoke for 4 days, and on the next day of the final exposure, the bronchoalveolar lavage fluid was recovered according to the method described in EXAMPLE 4, and cells containing alveolar macrophages were seeded on a 96-well plate at a density of 1×10^6 cells/ml. On the next day, the cells were stimulated with LPS (10 ng/ml) and 25-HC (0.3 to 3 μg/ml) and cultured for 24 hours. According to the method described in EXAMPLE 1, total RNA was then recovered from the cells according to the attached manual, and the amounts of mRNAs of CXCL2 and IL-1β, that is, inflammatory cytokines, were quantified by the real-time quantitative PCR method. As each probe, the corresponding probe was selected from Assays on demand gene expression product (Applied Biosystems) and used. The expression level of each gene was calculated as relative expression value to rodent GAPDH by the comparative Ct value method.

C57BL/6 mice [2] = assay: Production of cytokines in bronchoalveolar lavage fluid after intratracheal administration of 25-HC (ELISA); format: in vivo; conditions: 50 μg/50 μl/mouse, 3 hours after administration, vs control, FIG. 7
Experimental: To examine whether production of cytokines by 25-HC is observed in vivo as well, the effect of 25-HC administered to the lung of a mouse was examined.
25-HC or a control (physiological saline containing a solvent at the same concentration as used in dissolving 25-HC (10% aqueous ethanol)) was intratracheally administered at a dose of 50 μg/50 μl/mouse to C57BL/6 mice (6-week-old, male) under anesthesia with halothane, and 3, 6, 12, 24 and 48 hours after administration, the bronchoalveolar lavage fluid was recovered, and the amounts of KC and MIP-2, that is, inflammatory cytokines in the lavage fluid were measured by a commercial ELISA kit.

C57BL/6 mice [3] = assay: Neutrophil infiltration in bronchoalveolar lavage fluid after intratracheal administration of hydroxylated cholesterols; format: in vivo; conditions: 50 μg/50 μl/mouse/day for 4 days, lavage on the next day, FIG. 8
Experimental: To examine whether the airway inflammatory reaction by 25-HC is observed in vivo as well, the effect of 25-HC administered to the lung of a mouse was examined.
25-HC or a control (physiological saline containing a solvent at the same concentration as used in dissolving 25-HC (9.5% aqueous ethanol)), or 4β-hydroxycholesterol (4β-HC), was intratracheally administered for 4 days at a dose of 50 μg/50 μl/mouse/day to C57BL/6 mice (7-week-old, male) under anesthesia with ketamine and xylazine, and on the next day, the bronchoalveolar lavage fluid was recovered, and the number of inflammatory cells was determined.

SMILES: C[C@H](CCCC(C)(C)O)[C@H]1CC[C@H]2[C@@H]3CC=C4C[C@@H](O)CC[C@]4(C)[C@H]3CC[C@]12C [25-HC, 25-hydroxycholesterol]
- expression of CXCL2 (mRNA, relative to rodent GAPDH) [1]: increased depending on the concentration of 25HC
- expression of IL-1β (mRNA, relative to rodent GAPDH) [1]: increased depending on the concentration of 25HC
- amount of KC in bronchoalveolar lavage fluid (C57BL/6 mice [2]): significant increase
- amount of MIP-2 in bronchoalveolar lavage fluid (C57BL/6 mice [2]): significant increase
- neutrophil infiltration (number of neutrophils in bronchoalveolar lavage fluid) (C57BL/6 mice [3]): significant neutrophil infiltration was recognized
